Data: patent US5576022A, “Controlled release tacrine drug delivery systems and methods for preparing same” (Warner Lambert Company, priority 1995, dated 1996)

Columns and labels:
[1] = Single-dose 40-mg pharmacokinetics of CR1, CR3, CR4 and CR5 capsules in healthy elderly volunteers (Example 11, Protocol 970-36); conditions: all of the formulations
Protocol: Subjects ranged in age form 50 to 74 years (mean=62). None of the subjects were smokers. Serial blood samples were drawn up to 24 hours following each dose and subsequently analyzed for tacrine.
Lag-time (tlag) between dose administration and apparent start of absorption was determined as the sampling time immediately preceding time of the first quantifiable plasma concentration.
Extent of absorption was assessed by evaluation of AUC(O-tldc) values. […] Relative extent of absorption values based on AUC(O-.infin.) values were similar to those based on AUC(O-tldc).

[2] = Single-dose 40-mg pharmacokinetics of CR1, CR2, CR6 and CR7 capsules in healthy elderly volunteers (Example 12); assay type: in vivo, human; conditions: all of the formulations
Description: The study objective was to determine the relative bioavailability and in vivo release characteristics of a 40-mg tacrine IR capsule (CR1) and three prototype 40-mg tacrine CR capsules (CR2, CR6 and CR7) to aid in the development of a tacrine controlled-release formulation. Sixteen healthy volunteers received a single 40-mg tacrine dose of CR1, CR2, CR6, or CR7 according to a randomized, 4-way crossover design (Table 6). Subjects ranged in age from 59 to 77 years (mean=67). […] Serial blood samples were drawn up to 24 hours following each dose and were subsequently analyzed for tacrine, 1-OH tacrine, 2-OH tacrine, and 4-OH tacrine.

[3] = background; cited from earlier work

Row | SMILES | Plasma 1-OH tacrine concentrations relative to tacrine [1] | Plasma 1-OH tacrine concentrations relative to tacrine [2] | absorption and elimination in words [3]
1 | Nc1c2c(nc3ccccc13)CCCC2O (stereo not drawn) [1-OH tacrine] | approximately two times higher | approximately three times higher | 
2 | Cl.Nc1c2c(nc3ccccc13)CCCC2 [tacrine, 1,2,3,4-tetrahydro-9-acridinamine hydrochloride] |  |  | rapidly absorbed and eliminated
